Source: US12594265B2, “Methods and compositions for inhibition of STAT3” (Ohio State Innovation Foundation, priority 2017, dated 2026)

What was measured:
chronic EAE model of MS = assay: Chronic EAE model of MS (MOG-immunized B6 mice); assay type: in vivo
Method: EAE Induction. Immunization: 8-10 week old B6/WT or SJL/WT mice were s.c. injected over four sites in the flank with 200 μg MOG 35-55 or […] (CS bio) in an emulsion with CFA (Difco). 200 ng pertussis toxin (List) per mouse in PBS was injected i.p. at the time of immunization and 48 h later. Adoptive transfer: Splenocytes were isolated from naïve 5-10-week-old Vα2.3/Vβ8.2 TCR transgenic mice and activated with 10 μg/ml of MBP Ac1-11 with or without rmIL-6 in 24-well plates at […] with irradiated B10.PL splenocytes (6×10^8 cells/well). After 72 hours, the cells were washed with PBS and 8×10^6 were injected i.p. into naïve B10.PL mice. Evaluation. The mice were evaluated daily for clinical signs of EAE. Mice were scored on scale of 0 to 6:0, no clinical disease; 1, limp/flaccid tail; 2, moderate hind limb weakness; 3. severe hind limb weakness; 4. complete hind limb paralysis; 5 quadriplegia or premoribund state; and 6, death.
The in vivo efficacy of LLL12b was also evaluated in chronic EAE model of MS in immunized B6 mice by treating EAE mice with […] of LLL12b for 7 days after disease onset. FIGS. 8A-8B show representative data for the effect of a representative disclosed compound, LLL12b, for suppression of EAE development in a chronic EAE model of MS. Briefly, naïve WT/B6 mice were immunized with […].

[1] = system: IL-23-induced IL-17 production in myelin specific CD4 T cells; assay: IL-23-induced IL-17 production in myelin-specific CD4 T cells (splenocytes of PLP-immunized SJL mice); assay type: cell-based; conditions: PLP 139-151 with IL-23 for 3 days, different concentrations
From the text: Briefly, SJL mice were immunized with PLP 139-151. Splenocytes were isolated on day 20 after immunization and activated with PLP 139-151 with our without IL-23 for 3 days, in the presence of different concentrations of LLL12b or DMSO (vehicle control). […] Cells were gated on CD44+CD4+ T cells. Flow data are representative of three independent experiments. […] All error bars denote s.e.m. * * denotes p<0.01; *** denotes p<0.001; **** denotes p<0.0001.

CN(C)C(=O)Oc1cccc2c1C(=O)c1cccc(S(N)(=O)=O)c1C2=O [LLL12b]
EAE development (mean clinical score) (chronic EAE model of MS; 10 mg/kg for 7 days, day 14 to day 20, after disease onset): significantly suppresses EAE development | IL-17 production of splenocytes from treated mice (ELISA) (chronic EAE model of MS; ex vivo, activated with MOG 35-55 for 3 days): decreased IL-17 production | IL-23-induced IL-17 production [1]: inhibition of IL-23-induced IL-17 production
